According to PMC11714206, “Massively Parallel Screening of Toll/Interleukin‐1 Receptor (TIR)‐Derived Peptides Reveals Multiple Toll‐Like Receptors (TLRs)‐Targeting Immunomodulatory Peptides” (Advanced Science, 2024):
“And” between values parts separate entries of the source, which are not always exact repeats. Identical values can stand only once. Values belong to the sequence of their own block, whether it stands above or below them.

Target: T1, MAL^TIR (Homo sapiens, UniProt P58753)
T1 construct: MAL (residues 79–221); 6xHis; made in house; host or cells: E. coli BL21 (DE3)
T1 sequence (P58753 79-221): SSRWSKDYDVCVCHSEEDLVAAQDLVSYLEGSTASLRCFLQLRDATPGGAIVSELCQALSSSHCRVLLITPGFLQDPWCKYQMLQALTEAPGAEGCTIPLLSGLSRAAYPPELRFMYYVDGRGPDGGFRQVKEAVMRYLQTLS
Test: T‐Surf phage library (P8 and P3) selection against MAL^TIR, four rounds, NGS read counts
Type: binding
Conditions: for P8_MAL Rank (after) / P8_MAL Rank (before): P8 library; for Population: P8_MAL pool: P8 T-Surf phage library, 4th round of selection against MAL TIR, share of NGS reads; for Rank (after): P8_MAL: rank by count after grouping; for Rank (before): P8_MAL: rank by count before grouping
Description: T‐Surf libraries were screened against the immobilized TIR domains of two major human TLR adaptor proteins, MAL^TIR and MyD88^TIR, allowing cross‐species selection of TIR‐binding motifs with 190 946 TIR‐derived peptides in a single binding assay (Scheme 1). Enriched phage pools from the fourth round of selection were analyzed using NGS after barcoding the peptide‐coding regions of the phage pools.
Phage display screening was performed by coating two wells of a 96‐well plate (Maxisorp, Thermo Fisher Scientific) with 100 µL of 5 µg mL^−1 TIR domains overnight; then, the coated wells were blocked with 200 µL of blocking buffer (0.2% BSA in PBS) and set aside for 1 h at 4 °C with gentle shaking. Next, 100 µL of the phage library was added to the wells and incubated for 1 h at room temperature (RT; 20 – 22 °C) with gentle shaking. The plate was washed four times with PBS containing 0.5% Tween‐20; the bound phages were eluted by adding 100 µL of 100 mM HCl to each well. The elute was neutralized with 10 µL of 1.0 M Tris‐HCl (pH 11.0). E. coli TG1 cells were grown to the log phase (A600 = ≈0.6), and 1 mL of the culture was incubated with 100 µL of the eluted phages for 30 min at 37 °C, with shaking at 200 rpm. Next, 1 µL of M13KO7 helper phages was added, followed by incubation for 45 min at 37 °C, with shaking. Subsequently, the cells were transferred to 25 mL of 2× yeast extract tryptone/carbenicillin/kanamycin medium and incubated overnight at 37 °C with shaking at 200 rpm. The amplified phages were precipitated with 20% PEG‐8000/2.5 M NaCl to be used for the next round of selection.
The naïve T‐Surf libraries in P8 and P3 and the enriched phage pools after four rounds were barcoded for NGS as previously described.^[ [59] ^] Briefly, 5 µL of the phage pool was used as a template for 20 cycles of a 50 µL PCR reaction using […] each of forward and reverse barcoded primers and PrimeSTAR Max DNA Polymerase. The PCR products were purified using Expin Gel SV (GeneAll). The NGS samples were quantified using qPCR, following the qPCR Quantification Protocol Guide (KAPA Library Quantification kits for Illumina Sequencing Platform), and qualified using the TapeStation High Sensitivity D1000 ScreenTape (Agilent Technologies). The indexed libraries were further sequenced by Macrogen (Seoul, Republic of Korea) using the NovaSeq platform (Illumina) with 100 bp paired‐end reads. The reads were demultiplexed by barcodes and filtered for an average Phred quality score of at least 30, followed by trimming the flanking consensus sequences using Cutadapt (version 2.3). Peptide sequence populations were analyzed according to the read counts.

[1] = 4R selection against MAL, rank after grouping
[2] = 4R selection against MAL, rank before grouping
[3] = selection against MAL TIR, rank by count after grouping
[4] = selection against MAL TIR, rank by count before grouping
[5] = selection against MAL, rank after grouping
[6] = selection against MAL, rank before grouping
[7] = selection against MAL, rank by count after grouping
[8] = selection against MAL, rank by count before grouping

P8_MAL Rank (after) [1]: 587
P8_MAL Rank (before) [2]: 1588
Sequence: AFFCTQLKSVLGNPTI

P8_MAL Rank (after) [1]: 655
P8_MAL Rank (before) [2]: 1590
Sequence: AFFCTQLLNVLRKPTI

P8_MAL Rank (after) [3]: 210
P8_MAL Rank (before) [4]: 1740
Sequence: AFFGAQLKSVLGNPPM

Population: 0.0034%
Sequence: AFFGAQLKSVLGNPTM

P8_MAL Rank (after) [3]: 191
P8_MAL Rank (before) [4]: 1739
Sequence: AFFGAQLKSVLRNPTM

P8_MAL Rank (after) [5]: 568
P8_MAL Rank (before) [6]: 1742
Sequence: AFFGEQLVTGLAKRSS

Rank (after): 426
Rank (before): 1748
Sequence: AFFGEQVSPVLGKPTM

P8_MAL Rank (after) [3]: 272
P8_MAL Rank (before) [4]: 1581
Sequence: AFFLAQLKSEPTNPTM

P8_MAL Rank (after) [5]: 533
P8_MAL Rank (before) [6]: 1578
Sequence: AFFLAQLKSVLGKPTM

P8_MAL Rank (after) [1]: 670
P8_MAL Rank (before) [2]: 1579
Sequence: AFFLAQLKSVLGNPTT

P8_MAL Rank (after) [1]: 645
P8_MAL Rank (before) [2]: 1580
Sequence: AFFLAQLKSVMGNPTM

Population: 0.00371%
Sequence: AFFLGAAEKRAGQSDDX

P8_MAL Rank (after) [3]: 198
P8_MAL Rank (before) [4]: 802
Sequence: AFFLGTAAYRAGQTDD

P8_MAL Rank (after) [1]: 609
P8_MAL Rank (before) [2]: 1751
Sequence: AFFRDQLRTVLGKPTM

P8_MAL Rank (after) [3]: 233
P8_MAL Rank (before) [4]: 1601
Sequence: AFFWAHLKSVLGKPTM

P8_MAL Rank (after) [5]: 529
P8_MAL Rank (before) [6]: 1657
Sequence: AFFWAHLRTVLGKPTI

P8_MAL Rank (after) [7]: 708
P8_MAL Rank (before) [8]: 1656
Sequence: AFFWAICIMRWCRRAF

P8_MAL Rank (after) [5]: 525
P8_MAL Rank (before) [6]: 1652
Sequence: AFFWAKLKRVLGNPTL

Population: 0.00278%
Sequence: AFFWAQLKNVLGNPTM

P8_MAL Rank (after) [7]: 718
P8_MAL Rank (before) [8]: 1642
Sequence: AFFWAQLKNVLGSPTI

P8_MAL Rank (after) [1]: 629
P8_MAL Rank (before) [2]: 1610
Sequence: AFFWAQLKQLLRSDGR

P8_MAL Rank (after) [3]: 257
P8_MAL Rank (before) [4]: 1607
Sequence: AFFWAQLKRAGQSDD

P8_MAL Rank (after) [5]: 515
P8_MAL Rank (before) [6]: 1644
Sequence: AFFWAQLKSELGNPSM

Population: 0.00463%
Sequence: AFFWAQLKSELGNPTM

Rank (after): 186
Rank (before): 1639
Sequence: AFFWAQLKSGLGNPTK

P8_MAL Rank (after) [5]: 567
P8_MAL Rank (before) [6]: 1640
Sequence: AFFWAQLKSTLGETSF

Rank (after): 399
Rank (before): 1623
Sequence: AFFWAQLKSVLGNLTK

P8_MAL Rank (after) [1]: 605
P8_MAL Rank (before) [2]: 1630
Sequence: AFFWAQLKSVLGNPAR

Rank (after): 424
Rank (before): 1661
Sequence: AFFWAQLKSVLGNPPV

Population: 0.00309%
Sequence: AFFWAQLKSVLGNPTL

Population: 0.00371% and 0.00278%
Sequence: AFFWAQLKSVLGNPTM

Population: 0.00309%
Sequence: AFFWAQLKSVLGNRTM

P8_MAL Rank (after) [7]: 679
P8_MAL Rank (before) [8]: 1635
Sequence: AFFWAQLKSVLQSDD

P8_MAL Rank (after) [7]: 696
P8_MAL Rank (before) [8]: 1633
Sequence: AFFWAQLKSVLRTQTM

P8_MAL Rank (after) [7]: 710
P8_MAL Rank (before) [8]: 1608
Sequence: AFFWAQLNSVLGNTTM

Rank (after): 138
Rank (before): 1605
Sequence: AFFWAQLQSMLGNPTM

Rank (after): 103
Rank (before): 1645
Sequence: AFFWAQPKSVLGNPTV

P8_MAL Rank (after) [7]: 722
P8_MAL Rank (before) [8]: 1646
Sequence: AFFWAQQKSVLGDPTM

P8_MAL Rank (after) [3]: 264
P8_MAL Rank (before) [4]: 1603
Sequence: AFFWAQVKSVLGNTTM

P8_MAL Rank (after) [3]: 243
P8_MAL Rank (before) [4]: 1654
Sequence: AFFWARLQSVLGNPTM

P8_MAL Rank (after) [3]: 258
P8_MAL Rank (before) [4]: 1666
Sequence: AFFWDSCVPCWANRR

P8_MAL Rank (after) [1]: 622
P8_MAL Rank (before) [2]: 1711
Sequence: AFFWEHLRPLLGKQAM

Rank (after): 477
Rank (before): 1713
Sequence: AFFWEKLRTVLGRPTM

Population: 0.00371%
Sequence: AFFWEQLKSVLGNPTM

P3_MAL Rank (after) (P3 library, selection against MAL, rank by count after grouping): 746
P3_MAL Rank (before) (P3 library, selection against MAL, rank by count before grouping): 1787
Sequence: AFFWEQLRPALKERLP

P8_MAL Rank (after) [7]: 704
P8_MAL Rank (before) [8]: 1698
Sequence: AFFWEQLRTALGNPTM

Rank (after): 127
Rank (before): 1699
Sequence: AFFWEQLRTLLGQPTM

Rank (after): 433
Rank (before): 1673
Sequence: AFFWEQLRTLLSKPTM

Rank (after): 141
Rank (before): 836
Sequence: AFFWEQLRTVLDHVNDV

Rank (after): 130
Rank (before): 835
Sequence: AFFWEQLRTVLGKPR

P8_MAL Rank (after) [3]: 194
P8_MAL Rank (before) [4]: 1684
Sequence: AFFWEQLRTVLGKPSI

P8_MAL Rank (after) [1]: 631
P8_MAL Rank (before) [2]: 1693
Sequence: AFFWEQLRTVLRKPTT

P8_MAL Rank (after) [1]: 613
P8_MAL Rank (before) [2]: 1676
Sequence: AFFWEQLRTVLRTPTL

P8_MAL Rank (after) [1]: 612
P8_MAL Rank (before) [2]: 1710
Sequence: AFFWEQMRTVLGKPTT

P8_MAL Rank (after) [1]: 637
P8_MAL Rank (before) [2]: 1668
Sequence: AFFWERLRPVLRKPTR

P8_MAL Rank (after) [1]: 635
P8_MAL Rank (before) [2]: 1717
Sequence: AFFWPKLKSGLGNPTM

Rank (after): 418
Rank (before): 1716
Sequence: AFFWPQLKSMLRNTTV

Rank (after): 146
Rank (before): 1715
Sequence: AFFWPQLKSVLGNPTK

Rank (after): 154
Rank (before): 1718
Sequence: AFFWQQLKSVPGNPTM

P8_MAL Rank (after) [3]: 285
P8_MAL Rank (before) [4]: 1721
Sequence: AFFWTHLKNLPRNPTF

P8_MAL Rank (after) [5]: 527
P8_MAL Rank (before) [6]: 1722
Sequence: AFFWTQLSTVMGKPTM

Rank (after): 461
Rank (before): 1804
Sequence: AFLCAHLKSVLGNPTI

P8_MAL Rank (after) [5]: 578
P8_MAL Rank (before) [6]: 1805
Sequence: AFLCDQLSTLMDPPTF

Rank (after): 133
Rank (before): 1753
Sequence: AFLCPQLKSVLGNPTI

Rank (after): 185
Rank (before): 1757
Sequence: AFLCTFLINLTHNTTF

Rank (after): 415
Rank (before): 1755
Sequence: AFLCTHLKNLIHKTTI

Rank (after): 442
Rank (before): 1756
Sequence: AFLCTQLNNVTDTPTL

P8_MAL Rank (after) [1]: 616
P8_MAL Rank (before) [2]: 1968
Sequence: AFLDPFLINLIQASIL

P8_MAL Rank (after) [5]: 505
P8_MAL Rank (before) [6]: 1908
Sequence: AFLDPFLITLIQASNF

Rank (after): 450
Rank (before): 1803
Sequence: AFLFTFLINLTHPSNF

P8_MAL Rank (after) [5]: 554
P8_MAL Rank (before) [6]: 1775
Sequence: AFLGAQLKSVLGKPTM

P8_MAL Rank (after) [5]: 491
P8_MAL Rank (before) [6]: 1776
Sequence: AFLGEQLHTMVDKPTM

Population: 0.00371%
Sequence: AFLGHLYNALVQAGIH

Rank (after): 430
Rank (before): 1777
Sequence: AFLGTAAYRAGQTDD

P8_MAL Rank (after) [5]: 570
P8_MAL Rank (before) [6]: 1906
Sequence: AFLGTFLIKLMHATIY

P8_MAL Rank (after) [5]: 562
P8_MAL Rank (before) [6]: 1912
Sequence: AFLNTLLKNLTRPPNF

Rank (after): 156
Rank (before): 1778
Sequence: AFLWAQLNSVLGNPTM

Rank (after): 471
Rank (before): 1796
Sequence: AFLWAYLNSVTHPPTF

Rank (after): 408
Rank (before): 1766
Sequence: AFLWTQLKNVLGNPTF

P8_MAL Rank (after) [5]: 534
P8_MAL Rank (before) [6]: 1765
Sequence: AFLWTQLKSLLRNTTM

P8_MAL Rank (after) [3]: 242
P8_MAL Rank (before) [4]: 1764
Sequence: AFLWTQLKSVLGNPTM

P8_MAL Rank (after) [5]: 483
P8_MAL Rank (before) [6]: 1797
Sequence: AFLWTYLSNLMHQPTF

Rank (after): 142
Rank (before): 1812
Sequence: AFLYAFLINLTHPTNI

P8_MAL Rank (after) [5]: 571
P8_MAL Rank (before) [6]: 1798
Sequence: AFLYAFLISLTHTTTF

P8_MAL Rank (after) [7]: 683
P8_MAL Rank (before) [8]: 1813
Sequence: AFLYAFLKNLTHPTNF

Rank (after): 139
Rank (before): 1767
Sequence: AFLYAFLNNLTHPTTF

Rank (after): 159
Rank (before): 1814
Sequence: AFLYDFLINLTHQTNF

P8_MAL Rank (after) [3]: 237
P8_MAL Rank (before) [4]: 1915
Sequence: AFLYLSDQSDPSDQF

P8_MAL Rank (after) [1]: 582
P8_MAL Rank (before) [2]: 1890
Sequence: AFLYNFFNDLTHPTIY

P8_MAL Rank (after) [1]: 671
P8_MAL Rank (before) [2]: 1891
Sequence: AFLYNFLLNLTHKPTF

P8_MAL Rank (after) [5]: 512
P8_MAL Rank (before) [6]: 1816
Sequence: AFLYPFLINLTHPTIP
